Measured values from patent US20240269104A1, “METHOD FOR TREATING PARKINSON'S DISEASE” (Olatec Therapeutics, Inc., priority 2021, published 2024).

Key:
IL-1α = IL-1α in LPS-stimulated cultured splenocytes from MPTP-injected mice; format: in vivo; settings: mice treated 200 mg/kg for seven days; splenocytes cultured with LPS, cell lysate
Description: Seven days after MPTP-acute administration, peripheral blood and spleen were isolated from each mouse, and hematological changes in the peripheral blood and cytokine production in the spleen were evaluated. […] White blood cells, lymphocytes, monocytes, and granulocytes were measured from the peripheral blood using a HemaTrue cell counter (Heska, Loveland, CO). Spleens were isolated and mechanically passed through a 70 μm cell strainer (ThermoFisher) in PBS. Cells were plated in a 96-well plate at a concentration of 200,000 cells/well in RPMI medium (Coring, New York, NY) with 10% FBS. After that, cells were stimulated with LPS at 1 μg/ml and 5 μg/ml. RPMI medium was used as control. After 72 hours, supernatant was isolated to measure the levels of IL-6. Cells were lysed with RIPA buffer (ThermoFisher) supplemented with protease inhibitor (ThermoFisher) to measure IL-1α levels. In both cases, 5-6 mice per group were used.

TREM2 = TREM2 immunoblotting in the striatum after MPTP-acute administration; format: in vivo, mice; settings: 200 mg/kg once each day; day 4 after MPTP-acute
Description: In this example, we measured the levels of […] (TREM2) after dapansutrile treatment. TREM2 may be a potential target for treating PD. For TREM2, mice were sacrificed at day 4 after MPTP-acute administration. The St was excised, and proteins were extracted and quantified as described in Example 9. 30 μg of protein per sample were resolved in a Mini-PROTEAN TGX 4-20% gradient gel (Bio-Rad, Hercules, CA) in 0.1% SDS running buffer (Bio-Rad). The gel was transferred to a […] nitrocellulose membrane (GE Healthcare, Chicago, IL). Membranes were blocked with 5% blocking buffer (Bio-Rad) in TBS 0.1% (v/v) Tween solution for one hour at room temperature. Samples were incubated overnight with primary antibody for mouse TREM2 (1:1000, Cell Signaling, Danvers, MA). Peroxidase-conjugated secondary antibody (Jackson ImmunoResearch, Philadelphia, PA) and chemiluminescence were used to detect the protein concentration. Conjugated antibody against β-actin (Santa Cruz Biotechnology, Dallas, TX) was used to normalize protein concentrations. Protein bands for monomeric and oligomeric forms of each individual mice were quantified using NIH ImageJ software. Four mice per group were used.

[1] = brain levels of dapansutrile after fortified feed pellets; format: in vivo, mice; settings: oral
Description: Mice were treated with dapansutrile by ad libitum consumption of dapansutrile-fortified feed pellets (7.5 g/kg) for 21 days. Control mice received a matching unfortified diet without dapansutrile. Mice were monitored during the study for any changes in physiological parameters, including irregular weight gain or loss as well as changes in body temperature. On day 21, mice were sacrificed, and brains were isolated. Dapansutrile measurements in the whole brain homogenates were performed at Syneos Health (Princeton, NJ). Five mice per group were assessed. […] The ability of dapansutrile to cross BBB even when delivered orally provides a potential advance for the treatment of chronic patients like PD.

[2] = fortified feed pellets, 21 days

CS(=O)(=O)CCC#N [dapansutrile, 3-methanesulfonylpropionitrile]
reduction of the level of intracellular IL-1α in splenocytes (IL-1α): 40%
levels of 35 kDa-glycosylated form of TREM2 in the striatum (TREM2): no changes
levels of nonglycosylated form of TREM2 (28 kDa) in the striatum (TREM2): significantly increased, reaching basal condition
concentration at 21 days ([1]; mouse, brain (whole brain homogenate), fortified feed pellets 7.5 g/kg ad libitum, whole brain homogenates, read-out: dapansutrile level in the brain): 47000 ng/g
brain level relative to concentration required to inhibit the NLRP3 assembly [1, 2]: at least 30 times
crossing of the blood-brain barrier [1, 2]: readily crosses the BBB
